Test results taken from US20060045953A1 (priority 2004, published 2006).

Target: T1, hT1R1/hT1R3 umami receptor (Homo sapiens, UniProt Q7RTX0+Q7RTX1)
T1 construct: expressed in transfected cells; host or cells: HEK293 derivative stably expressing Gα15, clone I-17, expression induced with mifepristone
T1 sequence (Q7RTX1 21-841): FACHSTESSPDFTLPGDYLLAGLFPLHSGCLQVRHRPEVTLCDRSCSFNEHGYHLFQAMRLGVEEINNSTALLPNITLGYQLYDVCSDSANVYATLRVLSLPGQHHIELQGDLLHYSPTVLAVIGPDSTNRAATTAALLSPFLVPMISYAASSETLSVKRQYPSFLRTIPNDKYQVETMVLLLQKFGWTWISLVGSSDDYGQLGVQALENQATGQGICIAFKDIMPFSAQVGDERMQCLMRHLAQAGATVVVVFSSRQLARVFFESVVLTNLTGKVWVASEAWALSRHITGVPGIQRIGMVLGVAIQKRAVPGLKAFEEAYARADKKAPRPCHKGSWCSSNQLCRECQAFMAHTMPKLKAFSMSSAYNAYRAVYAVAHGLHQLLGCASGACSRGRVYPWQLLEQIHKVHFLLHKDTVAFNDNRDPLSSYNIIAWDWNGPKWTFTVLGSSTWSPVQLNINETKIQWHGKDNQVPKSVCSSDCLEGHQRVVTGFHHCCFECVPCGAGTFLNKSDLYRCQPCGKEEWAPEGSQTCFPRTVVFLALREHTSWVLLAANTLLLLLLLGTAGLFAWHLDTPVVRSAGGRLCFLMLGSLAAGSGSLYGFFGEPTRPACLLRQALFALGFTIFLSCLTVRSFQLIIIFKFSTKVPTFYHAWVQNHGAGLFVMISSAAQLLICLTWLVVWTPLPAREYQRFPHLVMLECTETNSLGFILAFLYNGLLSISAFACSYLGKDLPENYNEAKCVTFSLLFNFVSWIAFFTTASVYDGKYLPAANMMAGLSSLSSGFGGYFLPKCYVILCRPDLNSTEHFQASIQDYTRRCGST
T1 sequence (Q7RTX0 21-852): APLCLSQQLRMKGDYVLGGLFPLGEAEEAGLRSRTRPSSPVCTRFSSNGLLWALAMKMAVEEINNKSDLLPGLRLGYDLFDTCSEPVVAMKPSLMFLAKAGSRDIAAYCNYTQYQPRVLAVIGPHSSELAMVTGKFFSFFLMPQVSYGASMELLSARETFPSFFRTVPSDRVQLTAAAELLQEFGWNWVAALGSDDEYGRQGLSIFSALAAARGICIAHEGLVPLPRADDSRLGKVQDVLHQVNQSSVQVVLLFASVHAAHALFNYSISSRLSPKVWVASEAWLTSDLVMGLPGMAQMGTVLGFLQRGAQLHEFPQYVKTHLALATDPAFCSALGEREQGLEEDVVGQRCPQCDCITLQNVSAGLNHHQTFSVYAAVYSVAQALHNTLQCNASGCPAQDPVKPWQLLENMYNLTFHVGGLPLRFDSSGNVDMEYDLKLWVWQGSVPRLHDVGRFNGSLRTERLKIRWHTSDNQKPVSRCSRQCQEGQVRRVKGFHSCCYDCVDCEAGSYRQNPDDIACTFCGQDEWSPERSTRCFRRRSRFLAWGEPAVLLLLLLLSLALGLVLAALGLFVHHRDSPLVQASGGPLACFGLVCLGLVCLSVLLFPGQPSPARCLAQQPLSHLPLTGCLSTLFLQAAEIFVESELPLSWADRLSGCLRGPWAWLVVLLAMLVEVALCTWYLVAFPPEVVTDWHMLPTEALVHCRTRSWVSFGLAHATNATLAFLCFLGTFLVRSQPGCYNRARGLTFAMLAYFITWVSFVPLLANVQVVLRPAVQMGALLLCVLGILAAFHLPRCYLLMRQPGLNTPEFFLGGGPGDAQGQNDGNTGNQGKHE
Assay: In vitro hT1R1/hT1R3 umami taste receptor activation assay (FLIPR, dose response)
Assay type: cell-based
Conditions: Table A, Umami Amides; read-out: Umami EC50

EC50 [nM]	Compound
220	CCOc1ccc(NC(=O)c2c(Cl)ccc(Cl)c2OC)cc1 [Example A1, 3,6-Dichloro-N-(4-ethoxy-phenyl)-2-methoxy-benzamide]

Same assay, conditions: read-out: EC50 for activation of a hT1R1/hT1R3 umami receptor expressed in an HEK293 cell line

Compound	EC50 [nM]
CCCC(CCC)NC(=O)c1nccc2ccccc12 [Example 103, N-(heptan-4-yl)isoquinoline-1-carboxamide]	14200
O=C(NCc1ccc(OC(F)(F)F)cc1)c1cccs1 [Example 105, N-(4-(trifluoromethoxy)benzyl)thiophene-2-carboxamide]	2400
COc1ccc(C(=O)NCCSCc2ccco2)cc1C [Example 106, N-(2-(furan-2-ylmethylthio)ethyl)-4-methoxy-3-methylbenzamide]	5600
COc1ccc(CNC(=O)c2ccc(-c3ccccn3)s2)c(OC)c1 [Example 109, 5-Pyridin-2-yl-thiophene-2-carboxylic acid 2,4-dimethoxy-benzylamide]	2860
Cc1cc(C(=O)NC(C)CCc2ccccc2)ccc1O (stereo not shown) [Example 111, 4-Hydroxy-3-methyl-N-(1-methyl-3-phenyl-propyl)-benzamide]	2700
CCc1ccc(CCNC(=O)c2ccc3c(c2)OCO3)cc1 [Example 112, Benzo[1,3]dioxole-5-carboxylic acid [2-(4-ethyl-phenyl)-ethyl]-amide]	3860
CCCC(NC(=O)c1ccc(OC)c(C)c1)c1ccccc1 (stereo not shown) [Example 113, 4-Methoxy-3-methyl-N-(1-phenyl-butyl)-benzamide]	2500
O=C(NC1CCc2ccccc21)c1ccc2c(c1)OCO2 (stereo not shown) [Example 118, Benzo[1,3]dioxole-5-carboxylic acid indan-1-ylamide]	1200
CCC(CC)NC(=O)c1ccc(OC)c(C)c1 [Example 119, 4-methoxy-3-methyl-N-(pentan-3-yl)benzamide]	400
Cc1ccc(CCNC(=O)c2occc2C)cc1 [Example 120, 3-methyl-N-(p-tolylethyl)furan-2-carboxamide]	6000
COc1ccc(CNC(=O)C(=O)NCCCc2ccccn2)c(OC)c1 [Example 127, N-(2,4-Dimethoxy-benzyl)-N′-(3-pyridin-2-yl-propyl)-oxalamide]	1840
COc1ccc(CNC(=O)C(=O)NCCc2ccccn2)cc1 [Example 128, N-(4-Methoxybenzyl)-N′-(2-pyridin-2-yl-ethyl)-oxalamide]	750
COc1ccc(CNC(=O)C(=O)NCCc2ncccc2C)c(OC)c1 [Example 129, N-(2,4-Dimethoxybenzyl)-N′-(2-(3-methylpyridin-2-yl)ethyl)oxalamide]	1640
O=C(NCCc1ccccn1)C(=O)NCc1cccc2c1OCCO2 [Example 137, N-((2,3-dihydrobenzo[b][1,4]dioxin-5-yl)methyl)-N′-(2-(pyridin-2-yl)ethyl) oxalamide]	300
O=C(NCCc1ccccn1)C(=O)NCc1ccc2c(c1)OCO2 [Example 138, N-(benzo[d][1,3]dioxol-5-ylmethyl)-N′-(2-(Pyridin-2-yl)ethyl)oxalamide]	500
CCc1ccc(CNC(=O)C(=O)NCCc2ccccn2)cc1 [Example 139, N-(4-Ethylbenzyl)-N′-(2-(pyridin-2-yl)ethyl)oxalamide]	790
CC(=O)Oc1ccccc1CNC(=O)C(=O)NCCc1ccccn1 [Example 142]	8500
COc1cccc(CNC(=O)C(=O)NCCc2ccccn2)c1OC [Example 146, N-(2,3-Dimethoxybenzyl)-N′-(2-(pyridin-2-yl)ethyl)oxalamide]	690
CSc1ccccc1CNC(=O)C(=O)NCCc1ccccn1 [Example 147, N-(2-(Methylthio)benzyl)-N′-(2-(pyridin-2-yl)ethyl)oxalamide]	960
O=C(NCCc1ccccn1)C(=O)NCc1ccccc1O [Example 148, N-(2-Hydroxybenzyl)-N′-(2-(pyridin-2-yl)ethyl)oxalamide]	3110
O=C(NCCc1ccccn1)C(=O)NCc1cc2ccccc2s1 [Example 150, N-(Benzo[b]thiophen-2-ylmethyl)-N′-(2-(pyridin-2-yl)ethyl)oxalamide]	740
Cc1ccc(CNC(=O)C(=O)NCCc2ccccn2)o1 [Example 152, N-((5-Methylfuran-2-yl)methyl)-N2-(2-(pyridin-2-yl)ethyl)oxalamide]	4900

Other lines, results leading:

EC50 [nM]	Compound
2200	O=C(NCc1ccc(OC(F)(F)F)cc1)c1ccsc1 [Example 107, Thiophene-3-carboxylic acid 4-trifluoromethoxy-benzylamide]
5600	COc1ccc(CNC(=O)c2sccc2C)c(OC)c1 [Example 108, 3-Methyl-thiophene-2-carboxylic acid 2,4-dimethoxy-benzylamide]
6000	COc1ccc(CNC(=O)c2ccnn2C)c(OC)c1 [Example 110, 2-Methyl-2H-pyrazole-3-carboxylic acid 2,4-dimethoxy-benzylamide]
1540	CCCC(NC(=O)c1ccc(OC)c(C)c1)c1ccccn1 (stereo not shown) [Example 114, 4-Methoxy-3-methyl-N-(1-pyridin-2-yl-butyl)-benzamide]
4120	CCCC(NC(=O)c1ccc2c(c1)OCO2)c1ccc(OC)cc1 (stereo not shown) [Example 115, Benzo[1,3]dioxole-5-carboxylic acid [1-(4-methoxy-phenyl)-butyl]-amide]
3900	CCCC(NC(=O)c1ccc(OCC)c(C)c1)c1ccc(OC)cc1 (stereo not shown) [Example 116, 4-Ethoxy-N-[1-(4-methoxy-phenyl)-butyl]-3-methyl-benzamide]
2800	COc1ccc([C@@H](C)NC(=O)c2ccc(OC)c(C)c2)cc1 [Example 117, 4-Methoxy-N-[1-(R)-(4-methoxy-phenyl)-ethyl]-3-methyl-benzamide]
1660	COc1ccc(CNC(=O)c2ccccc2-n2cccc2)c(OC)c1 [Example 121, N-(2,4-dimethoxybenzyl)-2-(1H-pyrrol-1-yl)benzamide]
10	O=C(NCCc1ccccn1)C(=O)NCc1ccccc1Cl [Example 136, N-(2-chlorobenzyl)-N′-(2-(pyridin-2-yl)ethyl)oxalamide]
1780	O=C(NCCc1ccccn1)C(=O)NCc1ccc2occc2c1 [Example 140, N-(Benzofuran-5-ylmethyl)-N′-(2-(pyridin-2-yl)ethyl)oxalamide]
3630	COC(=O)c1ccc(CNC(=O)C(=O)NCCc2ccccn2)cc1 [Example 141, N-((4-Methoxycarbonylphenyl)methyl)-N′-(2-(pyridin-2-yl)ethyl)oxalamide]
400	COc1ccc(CNC(=O)C(=O)NC(C)Cc2ccccn2)c(OC)c1 (stereo not shown) [Example 143, N-(2,4-Dimethoxybenzyl)-N′-(1-(Pyridin-2-yl)propan-2-yl)oxalamide]
1070	COc1ccc(CNC(=O)C(=O)NCC(C)c2ccccn2)c(OC)c1 (stereo not shown) [Example 144, N-(294-Dilmethoxybenzyl)-N′-(2-(pyridin-2-yl)propyl)oxalamide]
590	Cc1ccccc1CNC(=O)C(=O)NCCc1ccccn1 [Example 145]
170	O=C(NCCc1ccccn1)C(=O)NCc1cccc2c1OCO2 [Example 149, N-(Benzo[d][1,3]dioxol-4-ylmethyl)-N′-(2-(pyridin-2-yl)ethyl)oxalamide]
4400	O=C(NCCc1ccccn1)C(=O)NCc1nc2ccccc2s1 [Example 151, N-(Benzo[d]thiazol-2-ylmethyl)-N′-(2-(pyridin-2-yl)ethyl)oxalamide]
1820	Cc1occc1CNC(=O)C(=O)NCCc1ccccn1 [Example 153, N-((2-Methylfuran-3-yl)methyl)-N′-(2-(pyridin-2-yl)ethyl)oxalamide]
